ChEMBL document CHEMBL5338739, “Discovery of Dual Lysine Methyltransferase G9a and EZH2 Inhibitors with In Vivo Efficacy against Malignant Rhabdoid Tumor” (J Med Chem, 2023)
Calls of active or inactive are those of the source. The calls are words filed in the database; no cut-off is given here.

Experiments:
SW982 [1] = assay: Cytotoxicity against human SW982 cells assessed as reduction in cell viability incubated for 72 hrs by MTT assay; type: functional
RD [2] = assay: Cytotoxicity against human RD cells assessed as reduction in cell viability incubated for 72 hrs by MTT assay; type: functional
RD [3] = assay: Antiproliferative activity against human RD cells assessed as reduction in clone formation rate at 5 uM for 1 to 2 weeks with fresh medium replacement for every 2 to 3 days by crystal violet staining based microscopic analysis; type: functional, cell-based; settings: time 1-2 weeks
SW982 [4] = assay: Antiproliferative activity against human SW982 cells assessed as reduction in clone formation rate at 5 uM for 1 to 2 weeks with fresh medium replacement for every 2 to 3 days by crystal violet staining based microscopic analysis; type: functional, cell-based; settings: time 1-2 weeks
SW982 [5] = assay: Antiproliferative activity against human SW982 cells assessed as reduction in clone formation rate at 5 uM for 1 to 2 weeks with fresh medium replacement for every 2 to 3 days in presence of tazemetostat by crystal violet staining based microscopic analysis; type: functional, cell-based; settings: time 1-2 weeks
RD [6] = assay: Antiproliferative activity against human RD cells assessed as reduction in clone formation rate at 5 uM for 1 to 2 weeks with fresh medium replacement for every 2 to 3 days in presence of tazemetostat by crystal violet staining based microscopic analysis; type: functional, cell-based; settings: time 1-2 weeks
RD [7] = assay: Antitumor activity against human RD cells xenografted in BALB/c nude mouse assessed as tumor growth inhibition at 20 mg/kg, ip administered for 5 consecutive days followed by 2 rest days for 3 weeks; settings: 504 h, read-out: TGI
Mus musculus [8] = assay: Downregulation of H3K9me2 expression in tumor tissue of BALB/c nude mouse xenografted with human RD cells at 20 mg/kg, ip administered for 5 consecutive days followed by 2 rest days for 3 weeks by Western blotting analysis; type: functional, organism-based
Mus musculus [9] = assay: Downregulation of H3K27me3 expression in tumor tissue of BALB/c nude mouse xenografted with human RD cells at 20 mg/kg, ip administered for 5 consecutive days followed by 2 rest days for 3 weeks by Western blotting analysis; type: functional, organism-based
[10] = target: T1, Histone-lysine N-methyltransferase EHMT2 (Homo sapiens, UniProt Q96KQ7); assay: Inhibition of human recombinant EHMT2 G9a using SAM as substrate incubated for 1 hr by microplate luminescence based HMT assay
T1 sequence (Q96KQ7 whole entry): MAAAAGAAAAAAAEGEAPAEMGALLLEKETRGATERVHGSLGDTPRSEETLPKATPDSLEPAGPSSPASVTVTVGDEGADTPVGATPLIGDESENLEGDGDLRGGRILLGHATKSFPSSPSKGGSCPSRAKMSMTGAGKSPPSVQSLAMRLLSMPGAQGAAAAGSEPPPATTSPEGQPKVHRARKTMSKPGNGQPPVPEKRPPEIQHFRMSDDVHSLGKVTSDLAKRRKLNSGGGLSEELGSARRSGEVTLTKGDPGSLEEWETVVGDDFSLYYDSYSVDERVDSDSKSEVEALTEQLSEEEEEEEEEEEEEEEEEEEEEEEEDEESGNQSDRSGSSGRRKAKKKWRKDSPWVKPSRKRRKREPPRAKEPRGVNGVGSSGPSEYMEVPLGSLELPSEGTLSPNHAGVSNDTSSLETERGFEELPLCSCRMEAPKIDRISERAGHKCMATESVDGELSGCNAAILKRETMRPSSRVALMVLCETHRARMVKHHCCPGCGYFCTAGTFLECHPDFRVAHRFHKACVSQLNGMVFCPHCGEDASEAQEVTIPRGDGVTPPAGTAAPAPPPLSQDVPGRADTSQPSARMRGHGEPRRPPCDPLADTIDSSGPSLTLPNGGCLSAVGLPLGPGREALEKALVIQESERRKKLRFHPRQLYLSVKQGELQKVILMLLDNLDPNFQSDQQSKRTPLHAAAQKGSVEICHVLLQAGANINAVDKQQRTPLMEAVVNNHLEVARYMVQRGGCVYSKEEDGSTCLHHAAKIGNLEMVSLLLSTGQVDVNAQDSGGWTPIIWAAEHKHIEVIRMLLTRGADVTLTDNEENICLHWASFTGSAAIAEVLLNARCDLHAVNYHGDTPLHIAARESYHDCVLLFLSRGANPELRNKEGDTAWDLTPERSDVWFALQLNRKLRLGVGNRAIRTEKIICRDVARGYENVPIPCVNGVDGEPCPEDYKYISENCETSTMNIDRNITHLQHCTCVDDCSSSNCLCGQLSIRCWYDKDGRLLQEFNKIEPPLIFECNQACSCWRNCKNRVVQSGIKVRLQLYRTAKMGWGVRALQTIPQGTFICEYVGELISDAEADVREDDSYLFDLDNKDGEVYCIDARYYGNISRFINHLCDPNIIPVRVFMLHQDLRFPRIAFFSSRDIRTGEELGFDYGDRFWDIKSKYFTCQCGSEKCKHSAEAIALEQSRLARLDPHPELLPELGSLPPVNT

[11] = target: Histone-lysine N-methyltransferase EZH2 (Homo sapiens, UniProt Q15910); assay: Inhibition of human EZH2 using SAM as substrate incubated for 1 hr by microplate luminescence based HMT assay
Sequence of Histone-lysine N-methyltransferase EZH2 (Q15910 whole entry): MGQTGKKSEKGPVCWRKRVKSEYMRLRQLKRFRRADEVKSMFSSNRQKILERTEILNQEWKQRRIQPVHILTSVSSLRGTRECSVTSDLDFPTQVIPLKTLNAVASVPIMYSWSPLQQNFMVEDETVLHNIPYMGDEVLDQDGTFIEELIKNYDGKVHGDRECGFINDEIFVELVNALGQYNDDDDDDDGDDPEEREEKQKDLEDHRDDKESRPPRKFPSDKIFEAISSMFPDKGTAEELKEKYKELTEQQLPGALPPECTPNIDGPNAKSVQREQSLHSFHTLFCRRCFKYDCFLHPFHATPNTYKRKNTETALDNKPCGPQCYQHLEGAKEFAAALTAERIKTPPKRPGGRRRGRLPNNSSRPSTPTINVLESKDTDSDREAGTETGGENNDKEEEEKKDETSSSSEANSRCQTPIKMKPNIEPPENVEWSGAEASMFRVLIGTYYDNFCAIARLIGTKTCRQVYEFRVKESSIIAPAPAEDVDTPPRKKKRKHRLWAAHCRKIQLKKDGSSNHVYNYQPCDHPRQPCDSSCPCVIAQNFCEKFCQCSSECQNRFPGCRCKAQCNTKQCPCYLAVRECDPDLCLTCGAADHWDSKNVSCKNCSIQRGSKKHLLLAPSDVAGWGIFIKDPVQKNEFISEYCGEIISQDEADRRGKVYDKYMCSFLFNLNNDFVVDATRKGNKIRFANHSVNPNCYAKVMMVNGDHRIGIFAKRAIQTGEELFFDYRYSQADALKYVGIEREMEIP

| SMILES | CC50 (SW982 [1]) [µM] | CC50 (RD [2]) [µM] | further results |
| --- | --- | --- | --- |
| COc1cc2c(NCc3c(C)cc(C)[nH]c3=O)nc(N3CCN(C)CC3)nc2cc1OCCCN1CCCC1 | 67.2 | 60.1 |  |
| COc1cc2c(NC3CCN(C(C)C)CC3)nc(C3CCCCC3)nc2cc1OCCCN1CCCC1 | 29.5 | 34.2 | Activity (RD [3]): Active; Activity (SW982 [4]): Active; Activity (SW982 [5]): Active; Activity (RD [6]): Active |
| COc1cc2c(NCc3c(C)cc(C)[nH]c3=O)nc(N3CCOCC3)nc2cc1OCCCN1CCCC1 | 99.8 | 73.8 |  |
| COc1cc2c(NCc3c(C)cc(C)[nH]c3=O)nc(N3CCCC3)nc2cc1OCCCN1CCCC1 | 90.2 | 75.7 |  |
| CCN(CC)c1nc(NCc2c(C)cc(C)[nH]c2=O)c2cc(OC)c(OCCCN3CCCC3)cc2n1 | 87.7 | 82.5 |  |
| COc1cc2nc(N(C)CCCN(C)C)nc(NCc3c(C)cc(C)[nH]c3=O)c2cc1OC | 101 | 76 |  |
| COc1cc2c(NCc3c(C)cc(C)[nH]c3=O)nc(N(C)CCN(C)C)nc2cc1OCCCN1CCCC1 | 78.3 | 74.3 |  |
| CCN(c1cc(-c2ccc(CN3CCOCC3)cc2)cc(C(=O)NCc2c(C)cc(C)[nH]c2=O)c1C)C1CCOCC1 [TAZEMETOSTAT] | 116 | 245 | inhibition in vivo at 20 mg/kg (RD [7]): 69.2%; Activity (Mus musculus [8]): Active; Activity (Mus musculus [9]): Active |
| COc1cc2c(NCc3c(C)cc(C)[nH]c3=O)nc(N3CCC(OC)CC3)nc2cc1OCCCN1CCCC1 | 61.6 | 40.1 |  |
| COc1cc2c(NCc3c(C)cc(C)[nH]c3=O)nc(N3CCCCCC3)nc2cc1OCCCN1CCCC1 | 35.7 | 23.5 |  |
| CCN1CCN(c2nc(NCc3c(C)cc(C)[nH]c3=O)c3cc(OC)c(OCCCN4CCCC4)cc3n2)CC1 | 53.6 | 22.7 |  |
| COc1cc2nc(N3CCN(C)CC3)nc(NCc3c(C)cc(C)[nH]c3=O)c2cc1OC | 106 | 79.9 |  |
| COc1cc2nc(N3CCCN(C)CC3)nc(NCc3c(C)cc(C)[nH]c3=O)c2cc1OC | 99.8 | 68.5 | IC50 [10]: 0.015 µM; IC50 [11]: 0.0533 µM |
| COc1cc2nc(N(C)CCN(C)C)nc(NCc3c(C)cc(C)[nH]c3=O)c2cc1OC | 85.7 | 84.9 |  |
| COc1cc2c(NCc3c(C)cc(C)[nH]c3=O)nc(N3CCCCC3)nc2cc1OCCCN1CCCC1 | 27 | 41.3 |  |
| COc1cc2c(NCc3c(C)cc(C)[nH]c3=O)nc(N(C)C)nc2cc1OCCCN1CCCC1 | 85 | 74.4 |  |
| COc1cc2nc(N3CCOCC3)nc(NCc3c(C)cc(C)[nH]c3=O)c2cc1OC | 89.2 | 77.2 |  |
| COc1cc2c(NCc3c(C)cc(C)[nH]c3=O)nc(N3CCCN(C)CC3)nc2cc1OCCCN1CCCC1 | 48.9 | 56.5 |  |
